≈ marks a conversion by molar mass, not a printed value. Peptide text beside a SMILES is read from it.
Columns and labels:
E. coli ATCC 25922 [1] = experiment: SYTOX green uptake assay (membrane permeabilization); assay type: cell-based, Escherichia coli; conditions: 5 µM, positive control
Procedure: SG is impermeant to live cells and when the cell membrane is damaged, this dye penetrates into the cell and binds to intracellular DNA, due to its high-affinity to nucleic acids, leading to an increase in fluorescence. Exponentially growing bacteria (6 × 10^5 cfu mL^−1) were resuspended in PBS after centrifugation (1000 × g, 10 min, 4 °C) and washing steps. About 792 μL of the bacterial suspension was pre-incubated with 8 μL of 100 μM SG during 30 min at 37 °C in the dark. […] Results correspond to a representative experiment with negative (PBS) and positive (melittin) controls. Three independent experiments were performed.

E. coli ATCC 25922 [2] = experiment: Membrane polarization assay with DiSC3(5); assay type: cell-based, Escherichia coli; conditions: 5 µM, positive control
Procedure: When the cytoplasmic membrane is intact, the fluorescent probe DiSC3(5) accumulates into the cytoplasmic membrane and then aggregates, causing self-quenching of the fluorescence. In the presence of a membrane-depolarizing agent, DiSC3(5) is released into the medium, leading to an increase in fluorescence that can be monitored over time[59]. Briefly, exponentially growing bacteria were centrifuged (1000 × g, 10 min, 4 °C), washed with PBS, and resuspended in the same buffer to an A630 of 0.1; then 700 µL of bacteria were pre-incubated with 1 µM DiSC3(5) in the dark during 10 min at 37 °C, and then 100 µL of 1 mM KCl were added in order to equilibrate the cytoplasmic and external K^+ concentrations. […] Three independent experiments were performed and results correspond to a representative experiment with negative (PBS) and positive (melittin) controls.

[3] = tested on: P. aeruginosa strain PAO1; experiment: Scarification skin infection mouse model; assay type: in vivo, female CD-1 mice
Procedure: P. aeruginosa strain PAO1 was grown to an optical density at 600 nm (OD600) of 1 in tryptic soy broth medium. Subsequently cells were washed twice with sterile PBS, and resuspended to a final concentration of 5 × 10^7 CFU in 50 μL. To generate skin infection, female CD-1 mice (6 weeks old) were anesthetized with isoflurane and had their backs shaved. A superficial linear skin abrasion was made with a needle in order to damage the stratum corneum and upper layer of the epidermis. Five minutes after wounding, an aliquot of 50 μL containing 5 × 10^7 CFU of bacteria in PBS was inoculated over each defined area containing the scratch with a pipette tip. One day after the infection, peptides were administered to the infected area. Animals were euthanized and the area of scarified skin was excised 2 and 4 days post-infection, homogenized using a bead beater for 20 min (25 Hz), and serially diluted for CFU quantification. Two independent experiments were performed with four mice per group in each case. Statistical significance was assessed using a two-way ANOVA. Animals were maintained in accordance with the Guide for the Care and Use of Laboratory Animals in an AAALAC-accredited facility. All procedures were approved by the MIT’s Institutional Animal Care and Use Committee (IACUC), protocol number 1016-064-19.

erythrocytes = conditions: cited from earlier work
human erythrocytes = experiment: Hemolytic assay; conditions: SPOT-synthesized crude peptides; human red blood cells in NaCl 0.85%, 1 h, 37 °C; hemoglobin release at 546 nm; highest concentration 200 μg mL−1; 100% of hemolysis was not observed
Procedure: Fresh human venous blood was collected from volunteers in Vacutainer collection tubes containing sodium heparin as an anticoagulant (BD Biosciences, Franklin Lakes, NJ). The blood was centrifuged applying 151 × g force (1500 rpm) and the serum was removed and the blood cells were replaced and washed three times with the same volume of sterile NaCl 0.85% solution. Concentrated red blood cells were diluted tenfold in NaCl 0.85% solution and then exposed at twofold dilutions of peptides for 1 h at 37 °C, at identical concentrations used for antimicrobial assays, in the ratio of 1:1 (v/v), achieving a final volume of 100 μL. The assay was carried out in 96-well polypropylene microtiter plates. The positive control wells contained 1% of Triton X-100, representing 100% cell lysis, and negative control wells contained sterile saline. Hemoglobin release was monitored chromogenically at 546 nm using a microplate reader.

[4] = tested on: P. aeruginosa H1001 (fliC::luxCDABE); assay type: cell-based, Pseudomonas aeruginosa; conditions: SPOT-synthesized unpurified crude peptide (~70% purity); bioluminescent engineered P. aeruginosa; BM2 medium; 4 h, 37 °C; reduction of luminescence; 200 to 3 μg mL−1 tested
Procedure: A peptide array composed of 20 peptides (15 guavanins, 4 Pg-AMP1 fragments, and magainin 2) was designed and synthesized by Kinexus Bioinformatics Corporation (Vancouver, BC). Peptides were produced in a standard mass of 80 μg by using cellulose support in SPOT technology. The crude synthetic peptides were obtained from cellulose membrane discs that had already been treated with ammonia gas to release the peptides from the membrane. Peptides were then dissolved overnight in distilled water and subsequently evaluated for their biological activities, as described below.
The antimicrobial activity of the synthesized peptides was evaluated against an engineered luminescent P. aeruginosa H1001 (fliC::luxCDABE) strain in 96-well microplates. Aqueous solutions of peptides released from the cellulose spots were diluted twofold in BM2 medium [62 mM potassium phosphate buffer pH 7; 2 mM MgSO4; 10 μM FeSO4; 0.4% (wt/vol) glucose] down the eight wells of a 96-well plate, achieving a final volume of 25 μL in each well. Subsequently, 50 μL of overnight culture of P. aeruginosa H1001 (fliC::luxCDABE) were subcultured in 5 mL of fresh LB media and grown until they reached an OD600 of 0.4. This growing bacteria culture was then diluted 4:100 (v/v) into fresh BM2 media and 25 μL of this diluted bacterial culture was transferred to the microplate wells containing 25 μL of peptide solution. The final peptide concentrations tested ranged from 200 to 3 μg mL^−1. The plates were incubated for 4 h at 37 °C with constant shaking at 50 rpm. Luminescence was measured on a Tecan […]luor Plus Microplate Reader (Tecan US, Morrisville, NC). The antimicrobial activity was evaluated by the ability of the peptides to reduce the luminescence of P. aeruginosa-lux strain compared to untreated cells. The AMP magainin 2 and the carbapenem meropenem were used as positive controls and distilled water was used as a negative control.

Row | Compound | Hemolysis (human erythrocytes) | MIC [4] | further results
1 | melittin [reference compound] |  |  | SYTOX Green influx (membrane permeabilization) (E. coli ATCC 25922 [1]): rapid and maximal SG fluorescence signal; DiSC3(5) fluorescence change (membrane potential) (E. coli ATCC 25922 [2]): rapid increase in the fluorescence signal
2 | Pg-AMP1: guava glycine-rich antimicrobial peptide, UniProt P86030, template of the guavanins (RESPSSRMECYEQAERYGYGGYGGGRYGGGYGSGRGQPVGQGVERSHDDNRNQPR; UniProt P86030 1-55, looked up) |  |  | anti-infective activity ([3]; 6.25 μg mL−1, 4 days post-infection): no activity; effect on CFU counts / bacterial load (two-way ANOVA) ([3]; doses 6.25, 25 and 100 µg mL−1, 4 days post-infection, two experiments, four mice per group): significant reduction of bacterial load only at higher concentrations; dose at which activity is kept after 4 days ([3]; wound infection mouse model): 25 µg/mL; hemolytic activity (erythrocytes): hemolytic
3 | CSCC[C@H](NC(=O)[C@H](Cc1ccc(O)cc1)NC(=O)[C@H](CCC(N)=O)NC(=O)[C@@H](N)CCCNC(=N)N)C(=O)N[C@@H](CCCNC(=N)N)C(=O)N[C@@H](Cc1ccc(O)cc1)C(=O)N[C@@H](CC(C)C)C(=O)N[C@@H](CCC(=O)O)C(=O)N[C@@H](CCC(N)=O)C(=O)N[C@@H](C)C(=O)N[C@@H](CCC(=O)O)C(=O)N[C@@H](CCCNC(=N)N)C(=O)N[C@@H](Cc1ccc(O)cc1)C(=O)N[C@H](C(=O)N[C@@H](CC(N)=O)C(=O)N[C@@H](CCCNC(=N)N)C(=O)N[C@@H](CC(N)=O)C(=O)N[C@@H](CC(C)C)C(=O)N[C@@H](CCCNC(=N)N)C(=O)N[C@@H](CCCNC(=N)N)C(N)=O)C(C)C [Guavanin 4] (H-RQYMRYLEQAERYVNRNLRR-NH2) | > 200 µg/mL | 100 µg/mL (≈ 36.8 µM) | 
4 | N=C(N)NCCC[C@H](NC(=O)CNC(=O)[C@H](CO)NC(=O)CNC(=O)[C@H](Cc1ccc(O)cc1)NC(=O)CNC(=O)CNC(=O)CNC(=O)[C@H](Cc1ccc(O)cc1)NC(=O)[C@H](CCCNC(=N)N)NC(=O)CNC(=O)CNC(=O)CNC(=O)[C@H](Cc1ccc(O)cc1)NC(=O)CNC(=O)CNC(=O)[C@H](Cc1ccc(O)cc1)NC(=O)CNC(=O)[C@H](Cc1ccc(O)cc1)NC(=O)[C@@H](N)CCCNC(=N)N)C(N)=O [Fragment 2 (net charge)] (H-RYGYGGYGGGRYGGGYGSGR-NH2) | 100 µg/mL | 200 µg/mL (≈ 99.2 µM) | 
5 | CC[C@H](C)[C@H](NC(=O)CNC(=O)[C@H](CCCNC(=N)N)NC(=O)[C@H](CC(N)=O)NC(=O)[C@H](Cc1ccccc1)NC(=O)[C@H](CO)NC(=O)[C@H](CCCNC(=N)N)NC(=O)[C@H](CO)NC(=O)[C@H](C)NC(=O)[C@H](CCC(N)=O)NC(=O)[C@H](CCCCN)NC(=O)[C@H](Cc1ccc(O)cc1)NC(=O)[C@H](CC(C)C)NC(=O)[C@H](CCC(=O)O)NC(=O)[C@H](CCSC)NC(=O)[C@@H](NC(=O)[C@H](CO)NC(=O)[C@@H](N)CCCNC(=N)N)[C@@H](C)CC)C(=O)N[C@@H](CCCNC(=N)N)C(=O)N[C@@H](CCCNC(=N)N)C(N)=O [Guavanin 6] (H-RSIMELYKQASRSFNRGIRR-NH2) | > 200 µg/mL | 100 µg/mL (≈ 40.5 µM) | 
6 | CC(C)[C@H](NC(=O)CNC(=O)[C@H](CCC(N)=O)NC(=O)CNC(=O)[C@@H](NC(=O)[C@@H]1CCCN1C(=O)[C@H](CCC(N)=O)NC(=O)CN)C(C)C)C(=O)N[C@@H](CCC(=O)O)C(=O)N[C@@H](CCCNC(=N)N)C(=O)N[C@@H](CO)C(=O)N[C@@H](Cc1c[nH]cn1)C(=O)N[C@@H](CC(=O)O)C(=O)N[C@@H](CC(=O)O)C(=O)N[C@@H](CC(N)=O)C(=O)N[C@@H](CCCNC(=N)N)C(=O)N[C@@H](CC(N)=O)C(=O)N[C@@H](CCC(N)=O)C(=O)N1CCC[C@H]1C(=O)N[C@@H](CCCNC(=N)N)C(N)=O [Fragment 4 (hydrophobic moment)] (H-GQPVGQGVERSHDDNRNQPR-NH2) | > 200 µg/mL | > 200 µg/mL | 
7 | CSCC[C@H](NC(=O)[C@H](CC(C)C)NC(=O)[C@H](Cc1ccc(O)cc1)NC(=O)[C@@H](N)CCCNC(=N)N)C(=O)N[C@@H](CCC(=O)O)C(=O)N[C@@H](Cc1ccc(O)cc1)C(=O)N[C@@H](C)C(=O)N[C@@H](CCC(=O)O)C(=O)N[C@@H](CCC(N)=O)C(=O)N[C@@H](C)C(=O)N[C@@H](CCCCN)C(=O)N[C@@H](CCCNC(=N)N)C(=O)N[C@@H](CC(=O)O)C(=O)N[C@@H](C)C(=O)N[C@@H](CCCCN)C(=O)N[C@@H](CCCNC(=N)N)C(=O)N[C@@H](C)C(=O)N[C@@H](Cc1ccc(O)cc1)C(=O)N[C@@H](CCCNC(=N)N)C(=O)N[C@@H](CCCNC(=N)N)C(N)=O [Guavanin 10] (H-RYLMEYAEQAKRDAKRAYRR-NH2) | > 200 µg/mL | 200 µg/mL (≈ 77.7 µM) | 
8 | CSCC[C@H](NC(=O)[C@H](Cc1ccc(O)cc1)NC(=O)[C@H](C)NC(=O)[C@@H](N)CCCNC(=N)N)C(=O)N[C@@H](CCC(=O)O)C(=O)N[C@@H](C)C(=O)N[C@@H](CC(C)C)C(=O)N[C@@H](CCCNC(=N)N)C(=O)N[C@@H](CCC(N)=O)C(=O)N[C@@H](C)C(=O)N[C@@H](CCC(=O)O)C(=O)N[C@@H](CCCNC(=N)N)C(=O)N[C@@H](CC(C)C)C(=O)NCC(=O)N[C@@H](CC(N)=O)C(=O)N[C@@H](CCCNC(=N)N)C(=O)N[C@H](C(=O)N[C@@H](C)C(=O)N[C@@H](CCCNC(=N)N)C(=O)N[C@@H](CCCNC(=N)N)C(N)=O)[C@@H](C)O [Guavanin 9] (H-RAYMEALRQAERLGNRTARR-NH2) | > 200 µg/mL | > 200 µg/mL | 
9 | CC[C@H](C)[C@H](NC(=O)[C@H](CO)NC(=O)[C@H](CCC(=O)O)NC(=O)[C@H](Cc1ccc(O)cc1)NC(=O)[C@@H](NC(=O)[C@H](CCC(N)=O)NC(=O)[C@@H](N)CCCNC(=N)N)[C@@H](C)CC)C(=O)N[C@@H](CCC(=O)O)C(=O)N[C@@H](CCC(N)=O)C(=O)N[C@@H](C)C(=O)N[C@@H](CC(C)C)C(=O)N[C@@H](CCCNC(=N)N)C(=O)N[C@@H](CCCNC(=N)N)C(=O)NCC(=O)N[C@@H](Cc1ccc(O)cc1)C(=O)N[C@@H](CCCNC(=N)N)C(=O)N[C@@H](CO)C(=O)N[C@@H](Cc1ccc(O)cc1)C(=O)N[C@@H](CCCNC(=N)N)C(=O)N[C@@H](CCCNC(=N)N)C(N)=O [Guavanin 7] (H-RQIYESIEQALRRGYRSYRR-NH2) | > 200 µg/mL | 200 µg/mL (≈ 76.9 µM) | 
10 | CC[C@H](C)[C@H](NC(=O)CNC(=O)[C@H](CCCNC(=N)N)NC(=O)[C@H](CCC(N)=O)NC(=O)CNC(=O)[C@H](CCCCN)NC(=O)[C@H](CCCNC(=N)N)NC(=O)[C@H](CC(C)C)NC(=O)[C@H](C)NC(=O)[C@H](CCCNC(=N)N)NC(=O)[C@H](CCC(=O)O)NC(=O)[C@H](Cc1ccc(O)cc1)NC(=O)[C@H](C)NC(=O)[C@H](CCC(=O)O)NC(=O)[C@H](Cc1ccc(O)cc1)NC(=O)[C@H](Cc1ccc(O)cc1)NC(=O)[C@H](CO)NC(=O)[C@@H](N)CCCNC(=N)N)C(=O)N[C@@H](CCCNC(=N)N)C(=O)N[C@@H](CCCNC(=N)N)C(N)=O [Guavanin 8] (H-RSYYEAYERALRKGQRGIRR-NH2) | > 200 µg/mL | 100 µg/mL (≈ 39.6 µM) | 
